Reference: patent US20090247624A1, “FORMULATIONS OF RADIOPROTECTIVE ALPHA BETA UNSATURATED ARYL SULFONES” (Onconova Therapeutics Inc., priority 2006, published 2009)

How the values were obtained:
[1] = Saturated solubility of ON.1210.Na in different solvent systems; format: physicochemical; details: for solubility at 24 h: 24 hours of equilibration; for solubility at 48 h: 48 hours of equilibration
[2] = Octanol:water partition coefficient; format: physicochemical
Experimental: (§1) A stability indicating HPLC assay is used during the preformulation studies. Preformulation studies include determination of microscopic and macroscopic properties, partition coefficient, pKa, pH-solubility, pH-stability, solid-state characterization and solid-state stability. XRD and thermal analyses re used to characterize the solid and solid-state stability. The solid-state stability as well as the pH stability of the drug is carried out at 75° C.

[3] = pH-solubility study (equilibrium solubility, pKa); format: physicochemical; details: for solubility thermodynamic: aqueous solution (buffer not named), thermodynamic from solid
Experimental: as §1

[4] = pH-stability study under accelerated conditions; format: physicochemical
Experimental: as §1

[5] = Solid-state stability of ON.1210.Na at 75° C.; format: physicochemical
Experimental: as §1
The stability of ON.1210.Na in the solid state is determined by exposing the drug at 75° C. over a prolonged time. The sample is crimped in a 10 mL injection vial and kept at the above temperature. The sample is collected after 15 days and one month and reconstituted with diluting solution and its concentration is determined by HPLC. Appearance of any additional peak in the chromatogram is also noted. A control sample is represented by ON.1210.Na not exposed to 75° C. and reconstituted to a known concentration with diluting solution.

[6] = Stability of solid drug after autoclaving (HPLC); format: physicochemical; details: autoclaved in a crimped vial
Experimental: A solid drug sample (ON1210), after autoclaving in a crimped vial, is also evaluated for any degradation using the developed HPLC method. The sample, after autoclaving, is used to make a standard solution of 400 μg/mL and injected onto HPLC.

[7] = Half life by route of administration and as suspension; format: in vivo
Experimental: When, ON.1210.Na, for example, is administered as a suspension described herein the half life of the drug is on the order of 30-40 hours depending on the specific formulation and its viscosity. This dramatic increase in half-life translates to prolonged exposure to drug over a period of 72 hours and beyond. This increase is possible because of an apparent low dissolution rate of drug from the site of administration.

[8] = General physical properties: solubility in water; format: physicochemical
Text: 1210.Na. The example compound is a sodium salt of (E)-4-Carboxystyryl-4-chlorobenzylsulfone.

Structure (SMILES): O=C([O-])c1ccc(/C=C/S(=O)(=O)Cc2ccc(Cl)cc2)cc1.[Na+] [ON.1210.Na, (E)-4-Carboxystyryl-4-chlorobenzylsulfone, Sodium Salt]
- solubility ([1]; 0.25% Tween 80 in phosphate buffer, pH 8.45, aqueous with cosolvent or surfactant or cyclodextrin): 9.5 mg/mL
- solubility ([1]; 0.25% tween 80 in water, pH 8.87, aqueous with cosolvent or surfactant or cyclodextrin): 10.5 mg/mL
- solubility ([1]; 0.5% Tween 80 in phosphate buffer, pH 8.41, aqueous with cosolvent or surfactant or cyclodextrin): 9.8 mg/mL
- solubility ([1]; 0.5% tween 80 in water, pH 8.74, aqueous with cosolvent or surfactant or cyclodextrin): 10.3 mg/mL
- solubility ([1]; 1% (w/v) Povidone K 90 in water, pH 8.69, aqueous with cosolvent or surfactant or cyclodextrin): 209 mg/mL
- solubility ([1]; 1% PVP C 15, pH 8.86, aqueous with cosolvent or surfactant or cyclodextrin, thermodynamic from solid): 26.9 mg/mL
- solubility ([1]; 1% PVP C 30, pH 8.02, aqueous with cosolvent or surfactant or cyclodextrin, thermodynamic from solid): 25.1 mg/mL
- solubility ([1]; 1% Tween 80 in phosphate buffer, pH 8.45, aqueous with cosolvent or surfactant or cyclodextrin): 8.9 mg/mL
- solubility ([1]; 1% tween 80 in water, pH 8.82, aqueous with cosolvent or surfactant or cyclodextrin): 10.1 mg/mL
- solubility ([1]; 2% PVP C 15, pH 8.69, aqueous with cosolvent or surfactant or cyclodextrin, thermodynamic from solid): 26.9 mg/mL
- solubility ([1]; 2% Tween 80 in phosphate buffer, pH 8.39, aqueous with cosolvent or surfactant or cyclodextrin): 9.7 mg/mL
- solubility ([1]; 2% tween 80 in water, pH 8.78, aqueous with cosolvent or surfactant or cyclodextrin): 9 mg/mL
- solubility ([1]; 5% (w/v) Povidone K 90 in Water, pH 8.35, aqueous with cosolvent or surfactant or cyclodextrin): 152 mg/mL
- solubility ([1]; 10% PEG400:water, pH 8.24, aqueous with cosolvent or surfactant or cyclodextrin, thermodynamic from solid): 36 mg/mL
- solubility ([1]; 20% HPCD:20% PEG 400:60% water, pH 8.2, aqueous with cosolvent or surfactant or cyclodextrin): 53.6 mg/mL
- solubility ([1]; 25% PEG400:water, pH 8.01, aqueous with cosolvent or surfactant or cyclodextrin, thermodynamic from solid): 39 mg/mL
- solubility ([1]; 40% HPCD, pH 7.86, aqueous with cosolvent or surfactant or cyclodextrin): 109 mg/mL
- solubility ([1]; 50% PEG400:Buffer (0.01M), pH 8.2, aqueous with cosolvent or surfactant or cyclodextrin): 20.8 mg/mL
- solubility ([1]; 50% PEG400:Buffer (0.07M), pH 8.2, aqueous with cosolvent or surfactant or cyclodextrin): 23.4 mg/mL
- solubility ([1]; 50% PEG400:water, pH 7.53, aqueous with cosolvent or surfactant or cyclodextrin): 40 mg/mL
- solubility ([1]; 50:50 PEG400:ethanol, pH 8.46, organic solvent or mixture): 37 mg/mL
- solubility ([1]; 100% ethanol, pH 7.94, organic solvent or mixture): 0.9 mg/mL
- solubility ([1]; DMA:WATER:Ethanol (1:1:1), aqueous with cosolvent or surfactant or cyclodextrin): 46.4 mg/mL
- solubility ([1]; NN-Dimethyl Acetamide:Water:PEG 400 (1:2:2), pH 7.9, aqueous with cosolvent or surfactant or cyclodextrin): 66.2 mg/mL
- solubility ([1]; PEG300:ETH (70:30), pH 8.99, organic solvent or mixture): 48.3 mg/mL
- solubility ([1]; PEG 300:water (50:50), pH 4.5, aqueous with cosolvent or surfactant or cyclodextrin): 30.6 mg/mL
- solubility ([1]; PEG400:Benzyl alcohol (50:50), pH 8.19, organic solvent or mixture): 51.6 mg/mL
- solubility ([1]; PEG400:Ethanol 70:30, organic solvent or mixture): 55.5 mg/mL
- solubility ([1]; Propylene Glycol, organic solvent or mixture): 44 mg/mL
- solubility ([1]; Propylene glycol:water (50:50), pH 8.53, aqueous with cosolvent or surfactant or cyclodextrin): 41.6 mg/mL
- solubility at 24 h ([1]; aqueous with cosolvent or surfactant or cyclodextrin, thermodynamic from solid, 10% cyclodextran): 46 mg/mL
- solubility at 24 h ([1]; aqueous with cosolvent or surfactant or cyclodextrin, thermodynamic from solid, 20% cyclodextran): 62 mg/mL
- solubility ([1]; pH 8.21, organic solvent or mixture, PEG300 (IP10 g/kg)): 52 mg/mL
- solubility at 24 h ([1]; pH 8.32, aqueous with cosolvent or surfactant or cyclodextrin, thermodynamic from solid, 5% cyclodextran): 39 mg/mL
- solubility ([1]; pH 8.34, organic solvent or mixture, 100% PEG 400 (12 g/kg)): 26 mg/mL
- solubility at 48 h ([1]; pH 8.35, aqueous with cosolvent or surfactant or cyclodextrin, thermodynamic from solid, 20% cyclodextran): 58 mg/mL
- solubility at 48 h ([1]; pH 8.41, aqueous with cosolvent or surfactant or cyclodextrin, thermodynamic from solid, 10% cyclodextran): 41 mg/mL
- solubility at 48 h ([1]; pH 8.52, aqueous with cosolvent or surfactant or cyclodextrin, thermodynamic from solid, 5% cyclodextran): 32 mg/mL
- solubility ([1]; water, pH 8.4, water): 11.8 mg/mL
- octanol:water partition coefficient [2]: 1.28-2.87
- solubility thermodynamic ([3]; aqueous buffer, pH 4.0): 0.000154 mg/mL
- solubility thermodynamic ([3]; aqueous buffer, pH 5.0): 0.0379 mg/mL
- solubility thermodynamic ([3]; aqueous buffer, pH 6.0): 0.715 mg/mL
- solubility thermodynamic ([3]; aqueous buffer, pH 8.0): 16.8 mg/mL
- solubility thermodynamic ([3]; aqueous buffer, pH 9.0): 23.3 mg/mL
- solubility thermodynamic ([3]; pH 7.4, aqueous buffer): 11.1 mg/mL
- pKa ([3]; calculated from pH-solubility studies): 2.85 ± 0.6
- pH-stability profile ([4]; 75° C., Sodium Salt): better stability at neutral and biological pH but degradation is rapid under acidic condition
- stability in aqueous environment ([4]; biological pH): quite stable in an aqueous environment at biological pH
- degradation rate order ([4]; pH-stability study, Sodium Salt): pseudo-first-order rate
- accelerated solid-state stability of bulk drug substance [5]: no evidence of degradation
- stability of bulk solid drug [6]: stable under the autoclaving conditions
- half-life ([7]; in vivo, administered as a suspension): 30 to 40 h
- half life ([7]; intramuscular in contrast to intravenous): increases significantly
- half life ([7]; subcutaneous administration, compared with intramuscular): increases even further
- solubility [8]: 8 to 10 mg/mL
